From the NIST ThermoML archive (doi:10.1016/j.fluid.2016.10.005)
± gives the expanded uncertainty stated by the source.

How the values were obtained:
[1] = molar heat capacity at constant pressure; conditions: 101 kPa, Liquid, DSC
[2] = molar heat capacity at constant pressure; mn = molality of the nth substance listed, in mol/kg; conditions: 101 kPa, Liquid, DSC, m2 = 0

Compound	molar heat capacity at constant pressure ([1]; 278.15 K) [J/K/mol]	molar heat capacity at constant pressure ([1]; 283.15 K) [J/K/mol]	molar heat capacity at constant pressure ([1]; 288.15 K) [J/K/mol]	molar heat capacity at constant pressure ([1]; 293.15 K) [J/K/mol]	molar heat capacity at constant pressure ([1]; 298.15 K) [J/K/mol]	molar heat capacity at constant pressure ([1]; 308.15 K) [J/K/mol]	molar heat capacity at constant pressure ([1]; 318.15 K) [J/K/mol]	molar heat capacity at constant pressure ([1]; 328.15 K) [J/K/mol]	molar heat capacity at constant pressure ([1]; 333.15 K) [J/K/mol]	molar heat capacity at constant pressure ([2]; 278.15 K) [J/K/mol]	molar heat capacity at constant pressure ([2]; 283.15 K) [J/K/mol]	molar heat capacity at constant pressure ([2]; 288.15 K) [J/K/mol]	molar heat capacity at constant pressure ([2]; 293.15 K) [J/K/mol]	molar heat capacity at constant pressure ([2]; 298.15 K) [J/K/mol]	molar heat capacity at constant pressure ([2]; 308.15 K) [J/K/mol]	molar heat capacity at constant pressure ([2]; 318.15 K) [J/K/mol]	molar heat capacity at constant pressure ([2]; 328.15 K) [J/K/mol]	molar heat capacity at constant pressure ([2]; 333.15 K) [J/K/mol]
CCCCCOCCOCCOCCO [ethanol, 2-[2-[2-(pentyloxy)ethoxy]ethoxy]-]	471.7 ± 18	473.61 ± 18	475.62 ± 18	477.67 ± 19	479.72 ± 19	484.23 ± 19	489.08 ± 19	494.37 ± 19	497.05 ± 19	–	–	–	–	–	–	–	–	–
O [water]	75.75 ± 2.9	75.58 ± 2.9	75.47 ± 2.9	75.39 ± 2.9	75.35 ± 2.9	75.32 ± 2.9	75.34 ± 2.9	75.4 ± 2.9	75.48 ± 2.9	–	–	–	–	–	–	–	–	–
O [water] + CCCCCOCCOCCOCCO	–	–	–	–	–	–	–	–	–	75.75 ± 2.9	75.58 ± 2.9	75.47 ± 2.9	75.39 ± 2.9	75.35 ± 2.9	75.32 ± 2.9	75.34 ± 2.9	75.4 ± 2.9	75.48 ± 2.9
